Test results from ChEMBL document CHEMBL1770089, “Synthesis, structure-activity relationship of novel substituted 4H-chromen-1,2,3,4-tetrahydropyrimidine-5-carboxylates as potential anti-mycobacterial and anticancer agents” (2011).
Values after ≈ are worked out from the molar mass of the structure shown. Active and inactive are the calls of the source. No cut-off for these calls is given here.

Experiments:
Format in all cases: functional
SK-N-SH = assay: Cytotoxicity against human SK-N-SH cells after 48 hrs by MTT assay; design: concentration or dose not given beside the values
[1] = system: Mycobacterium tuberculosis; assay: Antituberculosis activity against Mycobacterium tuberculosis H37Rv by agar dilution method
A549 = assay: Cytotoxicity against human A549 cells after 48 hrs by MTT assay; design: concentration or dose not given beside the values
HeLa = assay: Cytotoxicity against human HeLa cells after 48 hrs by MTT assay; design: concentration or dose not given beside the values

Row | SMILES | Activity (SK-N-SH) | MIC [1] [µM] | Activity (A549) | Activity (HeLa)
1 | CCOC(=O)C1=C(C(F)(F)F)NC(=O)NC1c1coc2ccccc2c1=O (stereo not given) | 23.4% | 7.9 (≈ 3.02 µg/mL) | inactive | 29.2%
2 | COCCOC(=O)C1=C(C)NC(=S)NC1c1coc2ccccc2c1=O (stereo not given) | inactive | 66.8 (≈ 25 µg/mL) | inactive | inactive
3 | CCOC(=O)C1=C(c2ccccc2)NC(=O)NC1c1coc2ccc(C)cc2c1=O (stereo not given) | inactive | 30.9 (≈ 12.5 µg/mL) | 18.6% | 29.8%
4 | COc1cccc2c1C(=O)c1c(O)c3c(c(O)c1C2=O)C[C@@](O)(C(=O)CO)C[C@@H]3O[C@H]1C[C@H](N)[C@H](O)[C@H](C)O1 [DOXORUBICIN] | 31.8% | – | 55% | 86.5%
5 | CCOC(=O)C1=C(c2ccccc2)NC(=O)NC1c1coc2cc3occc3cc2c1=O (stereo not given) | inactive | 14.5 (≈ 6.25 µg/mL) | 13.1% | 59.1%
6 | COCCOC(=O)C1=C(C)NC(=S)NC1c1coc2ccc(C)cc2c1=O (stereo not given) | 22.8% | 32.2 (≈ 12.5 µg/mL) | 21.2% | 17.4%
7 | CCOC(=O)C1=C(C)NC(=S)NC1c1coc2ccc(-c3ccccc3)cc2c1=O (stereo not given) | 25.4% | 59.5 (≈ 25 µg/mL) | 37.4% | 40.9%
8 | CCOC(=O)C1=C(C)NC(=O)NC1c1coc2c([N+](=O)[O-])cccc2c1=O (stereo not given) | 56% | 4.18 (≈ 1.56 µg/mL) | 47.6% | 60.6%
9 | CCOC(=O)C1=C(C)NC(=S)NC1c1coc2ccccc2c1=O (stereo not given) | 32.7% | 72.7 (≈ 25 µg/mL) | 26.3% | 49.3%
10 | CCOC(=O)C1=C(C(F)(F)F)NC(=O)NC1c1coc2ccc(-c3ccccc3)cc2c1=O (stereo not given) | 10.7% | 3.39 (≈ 1.55 µg/mL) | 31.3% | 28.6%
11 | CCOC(=O)C1=C(c2ccccc2)NC(=S)NC1c1coc2ccc(C)cc2c1=O (stereo not given) | 12.1% | 14.9 (≈ 6.26 µg/mL) | 27.2% | 31.5%
12 | CCOC(=O)C1=C(C(F)(F)F)NC(=O)NC1c1coc2c(ccc3occc32)c1=O (stereo not given) | 34.3% | 3.67 (≈ 1.55 µg/mL) | 27.5% | 32.8%
13 | CCOC(=O)C1=C(C)NC(=O)NC1c1coc2cc3occc3cc2c1=O (stereo not given) | 37.5% | 34 (≈ 12.5 µg/mL) | 29.6% | 51.5%
14 | CCOC(=O)C1=C(C)NC(=O)NC1c1coc2c(ccc3occc32)c1=O (stereo not given) | inactive | 34 (≈ 12.5 µg/mL) | 33.8% | 42.4%
15 | CCOC(=O)C1=C(C)NC(=O)NC1c1coc2ccc(Br)cc2c1=O (stereo not given) | 31.1% | 30.8 (≈ 12.5 µg/mL) | 51.4% | 32.8%
16 | CCOC(=O)C1=C(C)NC(=O)NC1c1coc2ccc(C)cc2c1=O (stereo not given) | 1.7% | 36.5 (≈ 12.5 µg/mL) | 24.8% | 16.6%
17 | CCOC(=O)C1=C(C)NC(=S)NC1c1coc2ccc(C)cc2c1=O (stereo not given) | 7% | 34.9 (≈ 12.5 µg/mL) | 18.3% | 43.2%
18 | CC[C@@H](CO)NCCN[C@@H](CC)CO [ETHAMBUTOL] | – | 7.63 (≈ 1.56 µg/mL) | – | –
19 | COCCOC(=O)C1=C(C)NC(=O)NC1c1coc2ccccc2c1=O (stereo not given) | 23.9% | 69.8 (≈ 25 µg/mL) | 23.5% | 38.5%
20 | COCCOC(=O)C1=C(C)NC(=O)NC1c1coc2c(ccc3occc32)c1=O (stereo not given) | 8.4% | 31.4 (≈ 12.5 µg/mL) | 4.5% | 61.2%

Row | SMILES | Activity (SK-N-SH) | MIC [1] [µM] | Activity (A549) | Activity (HeLa)
21 | CCOC(=O)C1=C(CCl)NC(=O)NC1c1coc2ccccc2c1=O (stereo not given) | 18.6% | 34.5 (≈ 12.5 µg/mL) | 30.7% | 23.3%
22 | CCOC(=O)C1=C(C(F)(F)F)NC(=O)NC1c1coc2cccc(C)c2c1=O (stereo not given) | 35.9% | 3.91 (≈ 1.55 µg/mL) | 22% | 61.3%
23 | CCOC(=O)C1=C(C)NC(=O)NC1c1coc2ccc(-c3ccccc3)cc2c1=O (stereo not given) | inactive | 30.7 (≈ 12.4 µg/mL) | 7.2% | 45.3%
24 | CCOC(=O)C1=C(C)NC(=O)NC1c1coc2ccccc2c1=O (stereo not given) | 19% | 76.2 (≈ 25 µg/mL) | 18.1% | 16.6%
25 | CCOC(=O)C1=C(C)NC(=S)NC1c1coc2ccc(Br)cc2c1=O (stereo not given) | 20% | 29.7 (≈ 12.6 µg/mL) | 43.5% | 41.1%
26 | COCCOC(=O)C1=C(C)NC(=O)NC1c1coc2ccc(-c3ccccc3)cc2c1=O (stereo not given) | 13.4% | 57.6 (≈ 25 µg/mL) | 34.4% | 33.5%
27 | NNC(=O)c1ccncc1 [ISONIAZID] | – | 0.66 (≈ 0.0905 µg/mL) | – | –
28 | CCOC(=O)C1=C(c2ccccc2)NC(=O)NC1c1coc2ccccc2c1=O (stereo not given) | 15% | 64.1 (≈ 25 µg/mL) | 15.4% | 5.3%
29 | CCOC(=O)C1=C(c2ccccc2)NC(=S)NC1c1coc2ccccc2c1=O (stereo not given) | 1.9% | 61.6 (≈ 25 µg/mL) | 9.4% | 33%
30 | O=C(O)c1cn(C2CC2)c2cc(N3CCNCC3)c(F)cc2c1=O [CIPROFLOXACIN] | – | 9.44 (≈ 3.13 µg/mL) | – | –
31 | CCOC(=O)C1=C(C)NC(=O)NC1c1coc2ccc([N+](=O)[O-])cc2c1=O (stereo not given) | 28.7% | 4.18 (≈ 1.56 µg/mL) | inactive | 54.4%
32 | COCCOC(=O)C1=C(C)NC(=O)NC1c1coc2cc3occc3cc2c1=O (stereo not given) | 34.7% | 31.4 (≈ 12.5 µg/mL) | 34.7% | 37.6%
33 | CCOC(=O)C1=C(C)NC(=O)NC1c1coc2ccc(-c3ccco3)cc2c1=O (stereo not given) | 46.4% | 15.9 (≈ 6.25 µg/mL) | 34.5% | 35.4%
34 | CCOC(=O)C1=C(C(F)(F)F)NC(=O)NC1c1coc2cc3occc3cc2c1=O (stereo not given) | 6.9% | 7.38 (≈ 3.12 µg/mL) | 21.8% | 40.9%
35 | CCOC(=O)C1=C(C(F)(F)F)NC(=O)NC1c1coc2ccc(C)cc2c1=O (stereo not given) | 45.5% | 7.86 (≈ 3.12 µg/mL) | 37.4% | 33.5%
36 | CCOC(=O)C1=C(c2ccccc2)NC(=O)NC1c1coc2c(ccc3occc32)c1=O (stereo not given) | 39.4% | 14.5 (≈ 6.25 µg/mL) | 33.3% | 43.3%
37 | COCCOC(=O)C1=C(C)NC(=O)NC1c1coc2ccc(Br)cc2c1=O (stereo not given) | 38.4% | 28.7 (≈ 12.5 µg/mL) | 29.9% | 40.2%
38 | CCOC(=O)C1=C(CCl)NC(=O)NC1c1coc2ccc(C)cc2c1=O (stereo not given) | 55.3% | 16.6 (≈ 6.26 µg/mL) | 46.2% | 81.4%
39 | CCOC(=O)C1=C(c2ccccc2)NC(=O)NC1c1coc2ccc(-c3ccccc3)cc2c1=O (stereo not given) | inactive | 25.9 (≈ 12.1 µg/mL) | inactive | inactive
40 | COCCOC(=O)C1=C(C)NC(=O)NC1c1coc2ccc(C)cc2c1=O (stereo not given) | 35.6% | 34.1 (≈ 12.7 µg/mL) | 28.4% | 40.2%
